The record followed here is patent publication US12398107B2, “Fungicidal nitroanilino substituted pyrazoles” (FMC Corporation, priority 2018, dated 2025).

Holding throughout (type): in vivo
For one test, the system named is Phakopsora pachyrhizi. Put plainly: Test D: Asian soybean rust, preventive spray on soybean seedlings. To be noted: 100 = 100% disease control, 0 = no control. Summed up:
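Soybean seedlings sprayed to run-off with compound suspension (ppm, in 50/50 acetone/water with 250 ppm PEG400), inoculated next day with P. pachyrhizi spores, held 24 h saturated at 22°C then 8 days at 22°C. Visual rating 0-100% disease control relative to controls.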

For the next test, the system named is Septoria tritici. In words: Test A: wheat leaf blotch, preventive spray on wheat seedlings. To be noted: 100 = 100% disease control, 0 = no control relative to controls. In short, it runs like this: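 Compounds were suspended in acetone/water (50/50) with 250 ppm PEG400 and sprayed to run-off on wheat seedlings. The next day the seedlings were inoculated with Septoria tritici spores, held 48 h at 24 °C in saturated humidity, then 17 days at 20 °C. Disease control was rated 0–100 relative to controls.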

The subject of a further test is Botrytis cinerea. Put plainly: Test E: tomato Botrytis, preventive spray on tomato seedlings. The following applies: 100 = 100% disease control, 0 = no control. In short, it runs like this: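 Tomato seedlings sprayed to run-off with compound (ppm) in acetone/water with 250 ppm PEG400, then inoculated next day with B. cinerea spores. Held 48 h at 20 °C in saturated atmosphere, then 3 days at 24 °C. Visual rating 0–100% disease control relative to untreated controls.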

Test [1] concerns Puccinia recondita f. sp. tritici. In words: Test B: wheat leaf rust, preventive spray on wheat seedlings. The following applies: 100 = 100% disease control, 0 = no control relative to controls. Summed up: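 Compounds in acetone/water (50/50) with 250 ppm PEG400, sprayed to run-off on wheat seedlings at stated ppm; inoculated next day with P. recondita spores. Held 24 h saturated at 20° C., then 7 days in growth chamber at 20° C.; rating 0–100 = % disease control vs controls.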

In test [2] the test system is Blumeria graminis f. sp. tritici. In words: Test C: wheat powdery mildew, preventive spray on wheat seedlings. To be noted: rated after 8 days, 100 = 100% disease control, 0 = no control. Summed up:
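Compound dissolved in acetone (3% of final volume), then suspended in 50/50 acetone/water with 250 ppm PEG400 and sprayed to run-off on wheat seedlings. Inoculated next day with B. graminis f. sp. tritici spore dust, kept 8 days at 20° C; visual rating, 100 = full control, 0 = none, relative to controls.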

In another test the test system is Alternaria solani. In words: Test F: tomato early blight, preventive spray on tomato seedlings. The following applies: 100 = 100% disease control, 0 = no control. Summed up: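 Compounds in acetone/water (50/50) with 250 ppm PEG400, dosed in ppm, sprayed to run-off on tomato seedlings; next day inoculated with A. solani spores. Held 48 h saturated at 27° C, then 3 days at 20° C; visual rating 0–100% disease control relative to controls.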

For `Cc1nn(C)c(Nc2cc(F)c(F)cc2[N+](=O)[O-])c1-c1ccc(F)cc1Cl` [Compound 32], the “Test D disease control rating (Asian soybean rust)” value (“Test D disease control rating” for short) in the test on Phakopsora pachyrhizi (50 ppm) is 98%. In the test on Septoria tritici (50 ppm), the “Test A disease control rating (wheat leaf blotch)” value (from here on “Test A disease control rating”) was determined as 93%. The “Test E disease control rating (tomato Botrytis)” value (shortened to “Test E disease control rating”) in the test on Botrytis cinerea (50 ppm) turned out to be 99%. For the same compound, the “Test B disease control rating (wheat leaf rust)” value (from here on “Test B disease control rating”) in test [1] (50 ppm) worked out at 85%. Further, the “Test C disease control rating (wheat powdery mildew)” value (“Test C disease control rating” for short) in test [2] (50 ppm) is on record as 56%. In the test on Alternaria solani (50 ppm), the “Test F disease control rating (tomato early blight)” value (“Test F disease control rating” below) is on record as 0%.
Take `CCc1nn(C)c(Nc2c(F)cccc2[N+](=O)[O-])c1-c1ccc(F)cc1Cl` [Compound 72, 4-(2-chloro-4-fluorophenyl)-N-(2-fluoro-6-nitrophenyl)-3-ethyl-1-methyl-1H-pyrazol-5-amine]: the pest or weed control at 10 ppm was found to be 12% in the test on Phakopsora pachyrhizi (Phakopsora pachyrhizi, 10 ppm, read-out: Test D disease control rating (Asian soybean rust)); 100% in the test on Septoria tritici (Zymoseptoria tritici, 10 ppm, read-out: Test A disease control rating (wheat leaf blotch)); 98% in the test on Botrytis cinerea (Botrytis cinerea, 10 ppm, read-out: Test E disease control rating (tomato Botrytis)); 85% in test [1] (10 ppm, read-out: Test B disease control rating (wheat leaf rust)); 81% in test [2] (Blumeria graminis, 192 h, 10 ppm, read-out: Test C disease control rating (wheat powdery mildew)); 63% with Alternaria solani (Alternaria solani, 10 ppm, read-out: Test F disease control rating (tomato early blight)). For the same compound, the pest or weed control at 50 ppm in the test on Phakopsora pachyrhizi (Phakopsora pachyrhizi, 50 ppm, read-out: Test D disease control rating (Asian soybean rust)) amounted to 31%; in the test with Septoria tritici (Zymoseptoria tritici, 50 ppm, read-out: Test A disease control rating (wheat leaf blotch)) it was 100%; in the test on Botrytis cinerea (Botrytis cinerea, 50 ppm, read-out: Test E disease control rating (tomato Botrytis)) it was 98%; in test [1] (50 ppm, read-out: Test B disease control rating (wheat leaf rust)), 100%; in test [2] (Blumeria graminis, 192 h, 50 ppm, read-out: Test C disease control rating (wheat powdery mildew)), 99%; in the test with Alternaria solani (Alternaria solani, 50 ppm, read-out: Test F disease control rating (tomato early blight)), 99%.
On to `COc1ccc(Nc2c(-c3ccc(Cl)cc3Cl)c(C)nn2C)c([N+](=O)[O-])c1` [Compound 142], for which the “Test D disease control rating” value in the test with Phakopsora pachyrhizi (50 ppm) is reported as 25%. Also, the “Test A disease control rating” value with Septoria tritici (50 ppm) is recorded as 100%. Moreover, in the test on Botrytis cinerea (50 ppm), the “Test E disease control rating” value is 99%. For the same compound, the “Test B disease control rating” value in test [1] (50 ppm) is 91%. Further, the “Test C disease control rating” value in test [2] (50 ppm) was found to be 39%. In addition, the “Test F disease control rating” value with Alternaria solani (50 ppm) is on record as 80%.
With `Cc1cc(Cl)c(Nc2c(-c3ccc(C#N)cc3Cl)c(C)nn2C)c([N+](=O)[O-])c1` [Compound 156], in the test with Phakopsora pachyrhizi (50 ppm), the “Test D disease control rating” value was found to be 0%. Moreover, in the test with Septoria tritici (50 ppm), the “Test A disease control rating” value is on record as 91%. Besides, in the test with Botrytis cinerea (50 ppm), the “Test E disease control rating” value was 0%. In test [1] (50 ppm), the “Test B disease control rating” value is recorded as 91%. The “Test C disease control rating” value in test [2] (50 ppm) turned out to be 66%. Also, in the test with Alternaria solani (50 ppm), the “Test F disease control rating” value is 0%.
For `Cc1nn(C)c(Nc2c(Cl)cc(Cl)cc2[N+](=O)[O-])c1-c1c(F)cccc1F` [Compound 96], in the test on Phakopsora pachyrhizi (50 ppm), the “Test D disease control rating” value came to 0%. Moreover, the “Test A disease control rating” value in the test with Septoria tritici (50 ppm) was determined as 100%. The “Test E disease control rating” value in the test on Botrytis cinerea (50 ppm) is recorded as 80%. The “Test B disease control rating” value in test [1] (50 ppm) amounted to 95%. Also, the “Test C disease control rating” value in test [2] (50 ppm) was determined as 0%. Moreover, the “Test F disease control rating” value with Alternaria solani (50 ppm) is 0%.
Regarding `Cc1ccc(Nc2c(-c3ccc(F)cc3Cl)c(C)nn2C)c([N+](=O)[O-])c1` [Compound 26], the “Test D disease control rating” value with Phakopsora pachyrhizi (50 ppm) was 77%. The “Test A disease control rating” value in the test on Septoria tritici (50 ppm) was found to be 100%. The “Test E disease control rating” value in the test on Botrytis cinerea (50 ppm) was found to be 100%. Besides, the “Test B disease control rating” value in test [1] (50 ppm) is on record as 99%. The “Test C disease control rating” value in test [2] (50 ppm) is listed as 94%. For the same compound, the “Test F disease control rating” value with Alternaria solani (50 ppm) is listed as 68%.
On to `Cc1nn(C)c(Nc2c(Cl)cccc2[N+](=O)[O-])c1-c1c(F)cc(F)cc1F` [Compound 158], for which the “Test D disease control rating” value with Phakopsora pachyrhizi (50 ppm) came out at 87%. In the test with Septoria tritici (50 ppm), the “Test A disease control rating” value is on record as 99%. In addition, the “Test E disease control rating” value in the test on Botrytis cinerea (50 ppm) worked out at 99%. The “Test B disease control rating” value in test [1] (50 ppm) is given as 100%. Also, the “Test C disease control rating” value in test [2] (50 ppm) came to 99%. Besides, in the test with Alternaria solani (50 ppm), the “Test F disease control rating” value is given as 83%.
Turning to `Cc1nn(C)c(Nc2c(F)cccc2[N+](=O)[O-])c1-c1c(F)cc(Cl)cc1F` [Compound 151], the “Test D disease control rating” value in the test with Phakopsora pachyrhizi (50 ppm) turned out to be 0%. For the same compound, the “Test A disease control rating” value in the test with Septoria tritici (50 ppm) is recorded as 100%. Besides, in the test with Botrytis cinerea (50 ppm), the “Test E disease control rating” value is given as 99%. The “Test B disease control rating” value in test [1] (50 ppm) is listed as 100%. For the same compound, the “Test C disease control rating” value in test [2] (50 ppm) is 99%. Further, the “Test F disease control rating” value in the test with Alternaria solani (50 ppm) was determined as 99%.
For `Cc1nn(C)c(Nc2c(Cl)cccc2[N+](=O)[O-])c1-c1ccc(F)cc1Br` [Compound 41], the “Test D disease control rating” value with Phakopsora pachyrhizi (50 ppm) came to 77%. Besides, the “Test A disease control rating” value in the test on Septoria tritici (50 ppm) was determined as 100%. For the same compound, the “Test E disease control rating” value with Botrytis cinerea (50 ppm) is 77%. Moreover, in test [1] (50 ppm), the “Test B disease control rating” value is recorded as 100%. Moreover, the “Test C disease control rating” value in test [2] (50 ppm) was determined as 94%. In the test on Alternaria solani (50 ppm), the “Test F disease control rating” value was 0%.
Turning to `Cc1nn(C)c(Nc2ccc(OC(F)(F)F)cc2[N+](=O)[O-])c1-c1ccc(F)cc1Cl` [Compound 94], in the test with Phakopsora pachyrhizi (50 ppm), the “Test D disease control rating” value is listed as 73%. Further, the “Test A disease control rating” value with Septoria tritici (50 ppm) is recorded as 73%. Further, in the test on Botrytis cinerea (50 ppm), the “Test E disease control rating” value worked out at 0%. In addition, the “Test B disease control rating” value in test [1] (50 ppm) is given as 0%. Besides, the “Test C disease control rating” value in test [2] (50 ppm) worked out at 72%. Further, the “Test F disease control rating” value with Alternaria solani (50 ppm) turned out to be 9%.
`COc1cc(F)c(Nc2c(-c3ccc(Cl)cc3Cl)c(C)nn2C)c([N+](=O)[O-])c1` [Compound 138]: in the test on Phakopsora pachyrhizi (50 ppm), the “Test D disease control rating” value is reported as 67%. Moreover, the “Test A disease control rating” value in the test with Septoria tritici (50 ppm) is 100%. The “Test E disease control rating” value in the test on Botrytis cinerea (50 ppm) is given as 99%. Moreover, the “Test B disease control rating” value in test [1] (50 ppm) worked out at 100%. Further, the “Test C disease control rating” value in test [2] (50 ppm) is given as 93%. For the same compound, the “Test F disease control rating” value in the test with Alternaria solani (50 ppm) worked out at 100%.
Consider `Cc1cc(Cl)c(Nc2c(-c3ccc(F)cc3F)c(C)nn2C)c([N+](=O)[O-])c1` [Compound 15], for which the “Test D disease control rating” value in the test on Phakopsora pachyrhizi (50 ppm) worked out at 61%. In the test with Septoria tritici (50 ppm), the “Test A disease control rating” value stood at 100%. For the same compound, in the test on Botrytis cinerea (50 ppm), the “Test E disease control rating” value worked out at 99%. Further, the “Test B disease control rating” value in test [1] (50 ppm) stood at 100%. Besides, the “Test C disease control rating” value in test [2] (50 ppm) was found to be 98%. For the same compound, the “Test F disease control rating” value in the test on Alternaria solani (50 ppm) is given as 53%.
In the case of `Cc1cccc([N+](=O)[O-])c1Nc1c(-c2c(F)cc(F)cc2Cl)c(C)nn1C` [Compound 153], the “Test D disease control rating” value with Phakopsora pachyrhizi (50 ppm) turned out to be 73%. The “Test A disease control rating” value in the test on Septoria tritici (50 ppm) came to 99%. Moreover, the “Test E disease control rating” value with Botrytis cinerea (50 ppm) amounted to 99%. For the same compound, in test [1] (50 ppm), the “Test B disease control rating” value stood at 100%. Besides, the “Test C disease control rating” value in test [2] (50 ppm) is given as 99%. Moreover, the “Test F disease control rating” value with Alternaria solani (50 ppm) is 72%.
For `Cn1nc(C#N)c(-c2ccc(F)cc2Cl)c1Nc1c(F)cccc1[N+](=O)[O-]` [Compound 122], the “Test D disease control rating” value in the test with Phakopsora pachyrhizi (50 ppm) came out at 0%. Also, the “Test A disease control rating” value in the test on Septoria tritici (50 ppm) was determined as 100%. Also, the “Test E disease control rating” value in the test on Botrytis cinerea (50 ppm) is 100%. The “Test B disease control rating” value in test [1] (50 ppm) was 100%. The “Test C disease control rating” value in test [2] (50 ppm) was determined as 94%. The “Test F disease control rating” value with Alternaria solani (50 ppm) stood at 99%.
Consider `COc1cc(F)c(Nc2c(-c3ccc(F)cc3Cl)c(C)nn2C)c([N+](=O)[O-])c1` [Compound 85], for which the “Test D disease control rating” value with Phakopsora pachyrhizi (50 ppm) was found to be 96%. Further, the “Test A disease control rating” value in the test with Septoria tritici (50 ppm) turned out to be 100%. Besides, in the test on Botrytis cinerea (50 ppm), the “Test E disease control rating” value stood at 94%. Moreover, in test [1] (50 ppm), the “Test B disease control rating” value came out at 100%. Also, the “Test C disease control rating” value in test [2] (50 ppm) was determined as 97%. The “Test F disease control rating” value with Alternaria solani (50 ppm) came out at 98%.
